From the NIST ThermoML archive (doi:10.1016/j.fluid.2006.06.017)
Numbers after ± are expanded uncertainties.

How the values were obtained:
[1] = Liquid; for mass density: 298.15 K, 101.33 kPa; for vapor or sublimation pressure: Ebulliometric method (Recirculating still)
[2] = refractive index (Na D-line) (dimensionless); details: 298.15 K; 101.33 kPa; Liquid; Standard Abbe refractometry

## CCCCO [butan-1-ol]
[1]
  mass density: 805.65 ± 0.22 kg/m3
[1]; 351.18 K
  vapor or sublimation pressure: 20 ± 1 kPa
[1]; 390.75 K
  vapor or sublimation pressure: 101.3 ± 0.2 kPa
[2]
  refractive index: 1.3976 ± 0.0005

## CCCO [propan-1-ol]
[1]
  mass density: 799.62 ± 0.48 kg/m3
[1]; 332.63 K
  vapor or sublimation pressure: 20 ± 1 kPa
[1]; 369.75 K
  vapor or sublimation pressure: 101.3 ± 0.2 kPa
[2]
  refractive index: 1.3836 ± 0.0005

## CCCOCCC [dipropyl ether]
[1]
  mass density: 741.81 ± 0.56 kg/m3
[1]; 302.6 K
  vapor or sublimation pressure: 10.47 ± 0.2 kPa
[1]; 306.36 K
  vapor or sublimation pressure: 12.43 ± 0.2 kPa
[1]; 310.41 K
  vapor or sublimation pressure: 14.95 ± 0.2 kPa
[1]; 313.39 K
  vapor or sublimation pressure: 16.91 ± 0.2 kPa
[1]; 315.97 K
  vapor or sublimation pressure: 18.97 ± 0.2 kPa
[1]; 317.33 K
  vapor or sublimation pressure: 20 ± 1 kPa
[1]; 318.45 K
  vapor or sublimation pressure: 20.97 ± 0.2 kPa
[1]; 320.69 K
  vapor or sublimation pressure: 22.93 ± 0.2 kPa
[1]; 323.79 K
  vapor or sublimation pressure: 25.95 ± 0.2 kPa
[1]; 326.58 K
  vapor or sublimation pressure: 28.97 ± 0.21 kPa
[1]; 329.15 K
  vapor or sublimation pressure: 31.95 ± 0.21 kPa
[1]; 331.52 K
  vapor or sublimation pressure: 34.95 ± 0.21 kPa
[1]; 333.76 K
  vapor or sublimation pressure: 37.95 ± 0.21 kPa
[1]; 335.79 K
  vapor or sublimation pressure: 40.9 ± 0.21 kPa
[1]; 337.8 K
  vapor or sublimation pressure: 43.95 ± 0.21 kPa
[1]; 339.62 K
  vapor or sublimation pressure: 46.85 ± 0.21 kPa
[1]; 341.27 K
  vapor or sublimation pressure: 49.7 ± 0.21 kPa
[1]; 343.07 K
  vapor or sublimation pressure: 52.91 ± 0.22 kPa
[1]; 345.22 K
  vapor or sublimation pressure: 56.95 ± 0.22 kPa
[1]; 347.19 K
  vapor or sublimation pressure: 60.85 ± 0.22 kPa
[1]; 349.07 K
  vapor or sublimation pressure: 64.87 ± 0.22 kPa
[1]; 351.36 K
  vapor or sublimation pressure: 69.9 ± 0.22 kPa
[1]; 353.45 K
  vapor or sublimation pressure: 74.84 ± 0.23 kPa
[1]; 355.48 K
  vapor or sublimation pressure: 79.91 ± 0.23 kPa
[1]; 357.37 K
  vapor or sublimation pressure: 84.8 ± 0.23 kPa
[1]; 359.21 K
  vapor or sublimation pressure: 89.75 ± 0.23 kPa
[1]; 360.93 K
  vapor or sublimation pressure: 94.65 ± 0.24 kPa
[1]; 363.16 K
  vapor or sublimation pressure: 101.3 ± 0.24 kPa
[2]
  refractive index: 1.3784 ± 0.0005
